{
  "source": "patent US20150150935A1",
  "about": "“[…] RECEPTOR AGONISTS FOR REDUCING PAIN AND INFLAMMATION” (CARA THERAPEUTICS, INC., priority 2012, published 2015)",
  "key": {"[1]": {"tested_on": "patients post laparoscopic surgery", "experiment": "Adverse events in subjects treated with CR845 or placebo, Phase IIb trial", "format": "in vivo, human", "conditions": "first 24 hours post laparoscopic surgery; all CR845 treated groups; FIG. 15", "protocol": "Data are from a Phase IIb clinical trial in which subjects were administered CR845 or placebo. Generalized pruritus was distinguished from local pruritus events and shown separately in FIG. 15. Adverse events were lower in all CR845 treated patient groups as compared with placebo treated patients."}, "[2]": {"tested_on": "women after laparoscopic-assisted hysterectomy", "conditions": "cited from earlier work"}, "[3]": {"tested_on": "patients undergoing a laparoscopic hysterectomy", "experiment": "Phase 2 double-randomized placebo-controlled trial, CR845 dosed preoperatively and postoperatively, analgesic efficacy", "format": "in vivo, human", "protocol": "This trial was a phase 2 multi-center, double-randomized, double-blind, placebo-controlled study was conducted to evaluate the analgesic efficacy and safety of intravenous CR845 dosed preoperatively and postoperatively in patients undergoing a laparoscopic hysterectomy. The trial was conducted under an investigational new drug application (IND) filed with the US Food and Drug Administration (FDA).\nThis phase 2 trial multi-center, double-randomized, double-blind, placebo-controlled study was conducted in 22 sites in the United States. All clinical procedures were approved by the relevant Institutional Review Board (IRB) in compliance with the applicable laws and regulations of the US. The study was initiated up to fourteen (14) days preoperatively and the in-hospital period was approximately twenty-four (24) hours for each patient and follow up was conducted within seven (7) days of discharge from the hospital.\nThe aim of this clinical trial was to evaluate the analgesic efficacy and safety of intravenous (IV) CR845 dosed preoperatively and postoperatively in female patients undergoing an elective laparoscopic hysterectomy. Secondary objectives were: 1. […] To evaluate the safety and tolerability of CR845.\nThis Phase 2, double-randomized, double-blind, placebo-controlled, parallel group study was conducted in approximately 200 female subjects, aged 18 to 65, across 22 US clinical sites. All subjects were administered a 15-minute IV infusion of 0.04 mg/kg CR845 or matching placebo before surgery in a 1:1 ratio. After surgery and upon reaching a pain intensity baseline level of at least 4 on a 10 cm visual analog scale (VAS), subjects were also re-randomized in a 1:1 ratio to receive a second IV infusion of either 0.04 mg/kg of CR845 or placebo. All doubly-randomized patients were thereby randomized to receive one of four possible treatment regimens: placebo-placebo, placebo-CR845, CR845-placebo, or CR845-CR845 (See FIG. 1). Pain intensity and pain relief scores were assessed up to 24 hours following the post-surgery infusion. Patients were allowed IV morphine for rescue at any point during the post-operative period, if requested.\nThe main efficacy endpoints were the total morphine consumption in the first 24 hours in patients who were re-randomized in the postoperative period and the efficacy of CR845 in reducing pain intensity including time specific VAS difference; summed pain intensity differences (SPIDs); area under the curve (AUC); pain relief; and the proportion of patients that were randomized to receive preoperative CR845 with no rescue medication postoperatively. The safety endpoints included the incidence of adverse events, physical examination, vital signs, 12-lead ECG, clinical laboratory evaluations, and cumulative fluid balance."}},
  "data": [
    {"smiles": "CC(C)C[C@@H](NC(=O)[C@@H](Cc1ccccc1)NC(=O)[C@H](N)Cc1ccccc1)C(=O)N[C@H](CCCCN)C(=O)N1CCC(N)(C(=O)O)CC1", "note": "[CR845, D-Phe-D-Phe-D-Leu-D-Lys-[ω(4-aminopiperidine-4-carboxylic acid)]-OH]", "values": [
      {"measurement": "Adverse events (nausea, vomiting and pruritus) compared with placebo", "setting": "[1]", "value": "lower"},
      {"measurement": "Reduction of morphine use versus placebo", "setting": "[2]; 0.04 mg/kg 15-minute IV infusion after surgery, first 16 hours post-infusion", "value": 32, "unit": "%"},
      {"measurement": "Opioid side effects (vomiting, nausea and pruritis)", "setting": "[2]; 0.04 mg/kg IV after surgery, versus placebo", "value": "significant reduction"},
      {"measurement": "Changes in clinical lab test results, vital signs, electrocardiograms, Ramsey sedation scale", "setting": "[2]; 0.04 mg/kg IV after surgery", "value": "no significant changes"},
      {"measurement": "Reduction of pain intensity", "setting": "[2]; administered after surgery", "value": "effective"},
      {"measurement": "Safety and tolerability", "setting": "[2]; administered after surgery", "value": "safe and well tolerated"},
      {"measurement": "Tolerability in comparison to other known kappa agonists", "setting": "[2]; single intravenous dose after surgery", "value": "better tolerated"},
      {"measurement": "Reduction in summed pain intensity difference (SPID) pain score versus placebo only", "setting": "[3]; CR845-CR845 (0.04 mg/kg IV before and after surgery), first 24 hours, FIG. 2", "value": "more than twice the reduction"},
      {"measurement": "Reduction in pain intensity difference (PID) pain score versus placebo only", "setting": "[3]; CR845-CR845 (before and after surgery), over 24 hours, FIG. 3", "value": "twice the reduction"},
      {"measurement": "Pain relief as judged by PID score", "setting": "[3]; CR845 before and after surgery, among four groups", "value": "highest pain intensity difference"},
      {"measurement": "Patients' overall evaluation of pain relief as excellent", "setting": "[3]; CR845 pretreatment groups (CR845-CR845, CR845-Placebo, CR845-None)", "value": "highest percentage of patients"},
      {"measurement": "Reduction in pain SPID scores", "setting": "[3]; one dose of CR845, before or after surgery, first 24 hours, FIG. 2", "value": "intermediate level of reduction"},
      {"measurement": "Reduction in pain PID scores", "setting": "[3]; one dose of CR845, before or after surgery, first 24 hours, FIG. 3", "value": "intermediate level of reduction"},
      {"measurement": "Morphine self-administered by the patients", "setting": "[3]; two doses of CR845, intervals 2-4, 4-12 and 12-24 hours post surgery, FIG. 4", "value": "least morphine"}
    ]}
  ]
}
